# According to article PMC10945501, “Development and In Vivo Evaluation of Small-Molecule Ligands for Positron Emission Tomography of Immune Checkpoint Modulation Targeting Programmed Cell Death 1 Ligand 1” (Journal of Medicinal Chemistry, 2024):
# Values joined by “and” are separate entries in the source; they are usually repeats but may differ in a detail not shown here. Identical values can stand only once. Like-named read-outs stand apart in the source and are kept apart here.
# Experiments:
# [1] = tested on: PD-L1^± ES2 tumors (ovarian carcinoma); set-up: method as in PMID 37450644; settings: ex vivo autoradiography; cited from earlier work
# [2] = tested on: PD-L1^+ / PD-L1^– H358 tumors (lung adenocarcinoma); set-up: method as in PMID 37450644; settings: ex vivo autoradiography; cited from earlier work
# PD-L1 [3] = settings: cited from earlier work
# [4] = Lipophilicity by HPLC method (μHPLC logD); settings: for chromatographic logD: pH 7.4, μHPLC logD
# human PD-L1 = target: T1, human PD-L1 (Homo sapiens, UniProt Q9NZQ7); experiment: HTRF PD-1/PD-L1 binding assay (cell-free); settings: for fold decrease in affinity by methylation at R3*: IC50 ratio, pairs 4c vs 5a, 4c vs 5b, 4e vs 5c, 4e vs 5d; for IC50: cell-free competitive PD-1/PD-L1 HTRF, mean ± SD, read-out: IC50 (hPD-L1 binding affinity, HTRF)
# T1 construct: purchased Cisbio Bioassays SAS, Codolet, France 64PD1PEG
# CHO-hPD-L1 cells = experiment: MTT cell viability assay; format: cell-based, Chinese hamster; settings: Cricetulus griseus, 24 h
# PD-L1 (CHO-hPD-L1 cells) = target: T2, PD-L1 (CHO-hPD-L1 cells) (Homo sapiens, UniProt Q9NZQ7); experiment: Competitive radioligand binding assay with [^89Zr]Zr-atezolizumab, PD-L1-positive cells; settings: for % applied activity ([^89Zr]Zr-atezolizumab bound) / blockade of antibody binding: CHO-hPD-L1 cells; for % applied activity ([^89Zr]Zr-atezolizumab bound): preincubation with 5,000 nM blocker; for blockade of antibody binding: highest noncytotoxic concentration; for Ki: range contingent on published KD values of atezolizumab, read-out: Ki (Cheng–Prusoff)
# T2 construct: host or cells: CHO (Chinese hamster ovary) cells, kept under G418 selection
# [5] = tested on: PD-L1-negative (CHO) cells; experiment: Competitive radioligand binding assay with [^89Zr]Zr-atezolizumab, PD-L1-negative cells; set-up: species or system Chinese hamster
# Experimental: When 5a and 5c were administered at their highest noncytotoxic concentrations, a 50% blockade of antibody binding was observed (p = 0.034, p = 0.025, respectively).
# Nonspecific binding of MultiScreen plates (Merck KGaA, Darmstadt, Germany) was blocked with additive-free Ham’s F-12 medium for 30 min, followed by the addition of 2 × 10^5 CHO-K1 (ATCC, Manassas, USA) or CHO-hPD-L1 cells in 150 μL of additive-free Ham’s F-12 medium per well. […] Supernatant was removed after 60 min of incubation using the MultiScreenHTS vacuum filtration system (Merck KGaA, Darmstadt, Germany) and cells were washed twice with DPBS. After drying, filters were punched and measured in a Wizard^2 γ counter (PerkinElmer, Waltham, USA).
# [6] = Metabolic stability in human liver microsomes; format: in vitro ADME; settings: 60 min, 37 °C
# Experimental: Metabolic stability was tested using pooled, mixed gender, 20 donor human liver microsomes (HLM) (Corning, Corning, USA, Cat. #452161) according to the supplied protocol. In short, 15 μL of HLM (20 mg/mL), 15 μL of nicotinamide adenine dinucleotide phosphate (NADPH) regenerating system solution A (Corning, Corning, USA), 3 μL of solution B (Corning, Corning, USA), and 257 μL of a 1:10 dilution of 10× phosphate-buffered saline (PBS) concentrate (MORPHISTO, Offenbach am Main, Germany) were preincubated at 37 °C for 10 min.
# Aliquots were drawn 0, 15, 30, and 60 min after the addition of 5 μL radiotracer, subsequently quenched with the same amount of MeCN, centrifuged for 4 min at 21,380g, and analyzed by HPLC setup 1 for the amount of intact tracer (%).
# [7] = Plasma stability, mouse plasma; format: in vitro ADME; settings: 60 min, 37 °C
# Experimental: (§1) Plasma stability was tested against pooled mouse plasma (Merck KGaA, Darmstadt, Germany) and pooled human plasma (Merck KGaA, Darmstadt, Germany). 25 μL of formulated radiotracer were incubated with 1250 μL of plasma at 37 °C. The amount of intact tracer (%) was determined after 0, 15, 30, and 60 min. 100 μL aliquots were quenched with the same amount of MeCN, centrifuged for 4 min at 4 °C with 21,380g, and analyzed by HPLC setup 1.
# [8] = tested on: CHO and CHO-hPD-L1 xenografts; experiment: In vivo dynamic μPET/CT imaging; settings: NSG mice, i.v.
# Experimental: Body weight and tumor development were monitored every second day by caliper measurement. […] The animals were subjected to μPET imaging, when tumors reached a volume of at least 200 mm^3. […] There were no losses. […] The mice were placed in the μPET/CT scanner (Inveon, Siemens Medical Solution, Knoxville, USA), covering the total body, and dynamic imaging was performed for up to 60 min to follow tracer distribution. Images were recorded with frames of 4 × 2 […], and 1 × 500 s. During the whole imaging procedure, vital parameters (respiration, body temperature) were continuously monitored using a dedicated monitoring unit (bioVet; m2m imaging, Cleveland, USA) to ensure the depth of anesthesia and well-being of the animals. […] Volumes of interest (VOIs) were created semiautomatically based on fused μPET and μCT images using PMOD software (Version 3.807; Bruker, Mannheim, Germany). The tracer uptake in the VOIs is normalized to injected dose and volume and expressed as percentage injected dose per cubic centimeter (% ID/cc).
# [9] = tested on: CHO and CHO-hPD-L1 xenografts; experiment: Ex vivo biodistribution; format: in vivo, NSG mice
# Experimental: Ex vivo biodistribution was assessed 30, 40, and 70 min after tracer application in NSG mice. Radioactivity was determined using a Wizard[2] γ counter. Samples were measured for 30 s, CPM-corrected for background counts, and half-life corrected to time of tracer injection. Organs were wet-weighted, and the percentage of injected dose per gram of organ was calculated (% ID/g).
# [10] = Plasma stability, human plasma; format: in vitro ADME; settings: 60 min, 37 °C
# Experimental: as §1
# [11] = Plasma protein binding (centrifugal filters); format: in vitro ADME; settings: 10 kDa centrifugal filters
# Experimental: Plasma protein binding was assessed using 10 kDa centrifugal filters (Merck KGaA, Darmstadt, Germany). After centrifugation for 30 min at 21,380g, filtrates, and filters were measured separately in a γ counter. In addition, water was used instead of plasma to assess the nonspecific binding to filters.
# PD-L1 [12] = tested on: PD-L1; set-up: method as in PMID 37409670; settings: B16–F10, no control xenograft; cited from earlier work
# [13] = literature IC50 as stated in the original patent, read-out: Lit. IC50
# [14] = preincubation with 5,000 nM blocker
# [15] = read-out: IC50 (Figure 1, previously reported ligands)
# T1 sequence (Q9NZQ7 19-238 limits assumed): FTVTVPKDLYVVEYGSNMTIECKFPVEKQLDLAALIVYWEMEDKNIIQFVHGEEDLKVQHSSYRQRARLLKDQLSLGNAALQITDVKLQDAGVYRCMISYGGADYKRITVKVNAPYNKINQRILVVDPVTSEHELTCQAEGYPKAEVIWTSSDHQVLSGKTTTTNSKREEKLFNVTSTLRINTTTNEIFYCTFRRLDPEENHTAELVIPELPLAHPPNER
# T2 sequence (Q9NZQ7 19-290): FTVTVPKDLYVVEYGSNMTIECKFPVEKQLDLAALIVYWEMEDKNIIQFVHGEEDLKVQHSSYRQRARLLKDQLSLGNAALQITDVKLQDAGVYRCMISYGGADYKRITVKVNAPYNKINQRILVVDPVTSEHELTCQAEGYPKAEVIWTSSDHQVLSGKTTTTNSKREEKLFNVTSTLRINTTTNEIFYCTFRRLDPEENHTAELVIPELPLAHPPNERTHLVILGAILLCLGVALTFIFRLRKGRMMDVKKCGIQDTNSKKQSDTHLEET
compound,measurement,setting,value
N#Cc1c(-c2ccc([18F])cc2)csc1OCc1ccc(CN)cc1 [2-((4-(aminomethyl)benzyl)oxy)-4-(4-[^18F]fluorophenyl)thiophene-3-carbonitrile],difference in uptake PD-L1^+ vs PD-L1^– tumors,[1],not observed
same,fold higher uptake in PD-L1^+ compared to PD-L1^– tumors,[2],1.4 fold
Cc1c(COc2ccc(CN[C@](C)(CO)C(=O)O)c(OCc3cccc(C#N)c3)c2Cl)cccc1-c1ccc2c(c1)OCCO2 [BMS-1239],IC50,PD-L1 [3]; [13],149 nM
Cc1c(COc2cc(OCc3cncc(C#N)c3)c(CNC[C@@H](O)CC(=O)O)cc2Cl)cccc1-c1ccc2c(c1)OCCO2 [BMS-1250],IC50,PD-L1 [3]; [13],1.19 nM
Cc1cc(CN2CCCC[C@@H]2C(=O)O)c(OCc2cncc(C#N)c2)cc1OCc1cccc(-c2ccc3c(c2)OCCO3)c1C [BMS-1288],IC50,PD-L1 [3]; [13],1.88 nM
Cc1cc(CNCCO)c(OCc2cncc(C#N)c2)cc1OCc1cccc(-c2ccc3c(c2)OCCO3)c1C#N [BMS-1306],IC50,PD-L1 [3]; [13],0.92 nM
Cc1c(COc2cc(OCc3cncc(C(=O)O)c3)c(CN[C@@H](CCCN)C(=O)O)cc2Cl)cccc1-c1ccc2c(c1)OCCO2 [BMS-2002],IC50,PD-L1 [3]; [13],10 nM
Cc1c(COc2cc(OCc3cncc(C#N)c3)c(CN[C@@H](Cc3cccnc3)C(=O)O)cc2Cl)cccc1-c1ccc2c(c1)OCCO2 [BMS-2010],IC50,PD-L1 [3]; [13],50 nM
Cc1c(COc2cc(OCc3cncc(S(C)(=O)=O)c3)c(CO)cc2Cl)cccc1-c1ccc2c(c1)OCCO2 [BMS-3013],IC50,PD-L1 [3]; [13],80 nM
Cc1c(COc2cc(OCc3cncc(C#N)c3)c(CN[C@H](CC(N)=O)C(=O)O)cc2Cl)cccc1-c1ccc2c(c1)OCCO2 [BMS-3024],IC50,PD-L1 [3]; [13],5.54 nM
COc1ccccc1COc1cc(OCc2cccc(-c3ccc4c(c3)OCCO4)c2C)c(Cl)cc1CN1CCCC[C@H]1C(=O)O [BMS-3029],IC50,PD-L1 [3]; [13],2350 nM
"Cc1c(COc2cc(OCc3ccnc(C#N)c3)c(CN(C)[C@H](CO)C(=O)O)cc2Cl)cccc1-c1ccc2c(c1)OCCO2 [Compound 5a, N-(5-Chloro-2-((2-cyanopyridin-4-yl)methoxy)-4-((3-(2,3-dihydrobenzo[b][1,4]dioxin-6-yl)-2-methylbenzyl)oxy)benzyl)-N-methyl-D-serine]",chromatographic logD,[4],3.36 ± 0.04
same,fold decrease in affinity by methylation at R3*,human PD-L1,1.02 fold
same,IC50,human PD-L1,6.2 ± 0.6 nM
same,EC50,"CHO-hPD-L1 cells; read-out: Relative EC50 (cell viability, MTT)",20600 nM
same,% applied activity ([^89Zr]Zr-atezolizumab bound),PD-L1 (CHO-hPD-L1 cells),4.2 % applied activity
same,blockade of antibody binding,PD-L1 (CHO-hPD-L1 cells),50%
same,Ki,PD-L1 (CHO-hPD-L1 cells),700 to 4500 nM
same,% applied activity ([^89Zr]Zr-atezolizumab bound),[5]; [14],0.2 % applied activity
"Cc1c(COc2cc(OCc3ccnc(C#N)c3)c(CN(C)CCO)cc2Cl)cccc1-c1ccc2c(c1)OCCO2 [Compound 5c, 4-((4-Chloro-5-((3-(2,3-dihydrobenzo[b][1,4]dioxin-6-yl)-2-methylbenzyl)oxy)-2-(((2-hydroxyethyl)(methyl)amino)methyl)phenoxy)methyl)picolinonitrile]",μHPLC logD,[4]; pH 7.4,4.9 ± 0.3
same,chromatographic logD,[4],4.93 ± 0.27
same,fold decrease in affinity by methylation at R3*,human PD-L1,1.32 fold
same,IC50,human PD-L1,10 nM and 10.2 nM
same,EC50,"CHO-hPD-L1 cells; CHO-hPD-L1 cells, read-out: EC50 (cell viability, MTT)",11600 nM
same,% applied activity ([^89Zr]Zr-atezolizumab bound),PD-L1 (CHO-hPD-L1 cells),4.7 % applied activity
same,blockade of antibody binding,PD-L1 (CHO-hPD-L1 cells),50%
same,Ki,PD-L1 (CHO-hPD-L1 cells),700 to 4500 nM
same,% applied activity ([^89Zr]Zr-atezolizumab bound),[5]; [14],0.1 % applied activity
N#Cc1cncc(COc2cc(OCc3cccc(-c4ccccc4)c3Br)c(Cl)cc2CN2CCCC[C@H]2C(=O)O)c1 [Example 8],IC50,PD-L1 [3]; [15],0.01 to 0.1 nM
N#Cc1cc(COc2cc(OCc3cccc(-c4ccc5c(c4)OCCO5)c3Br)c(Cl)cc2CN2CCCC[C@H]2C(=O)O)ccn1 [Example 15],IC50,PD-L1 [3]; [15],0.001 to 0.01 nM
"COc1cc(OCc2cccc(-c3ccccc3)c2C)cc(OC)c1CN1CCCC[C@H]1C(=O)O [PD-1/PD-L1 Inhibitor 1, reference compound]",EC50,"CHO-hPD-L1 cells; read-out: EC50 (cell viability, MTT)",52300 nM
Cc1c(COc2cc(OCc3ccnc(C#N)c3)c(CN([11CH3])CCO)cc2Cl)cccc1-c1ccc2c(c1)OCCO2 [[^11C]5c],intact tracer after human liver microsomes,[6],49.3%
same,intact tracer in mouse plasma,[7],over 99%
same,organ uptake (μPET),[8],"high uptake in the liver, intestine, gallbladder, and kidneys"
same,uptake in CHO and CHO-hPD-L1 xenografts (μPET),[8]; dynamic scan up to 60 min,< 1.2 % ID/cc
same,organ uptake (ex vivo biodistribution),[9]; NSG mice,"substantial uptake in the liver, lung, and kidneys"
same,ex vivo uptake marked in Figure 9B,"[9]; NSG mice, 30, 40 or 70 min p.i.",< 1.5 % ID/g
same,intact tracer in human plasma,[10],over 99%
same,fraction unbound,[11],0.011
Cc1c(COc2cc(OCc3cccc(OS(=O)(=O)[18F])c3)c(CNC(CO)(CO)CO)cc2Cl)cccc1-c1ccc2c(c1)OCCO2 [[^18F]LGSu-1],PD-L1^+ tumor uptake,PD-L1 [12],3.3 % ID/mL
atezolizumab: high-affinity anti-PD-L1 antibody used for reference [reference compound],IC50,human PD-L1,4.1 nM
same,% applied activity ([^89Zr]Zr-atezolizumab bound),[5]; preincubation with 200 nM blocker,0.1 % applied activity
